# Organism: Rattus norvegicus
# Test: Open TG-GATES - Regimen: Single
# Type: toxicity, organism-based, Sprague-Dawley
# Set-up: regimen Single, gender Male, age 6 weeks
# Conditions: in vivo, po, 60 mg/kg, route gavage, dose level High; for APTT / Bas / Eos / Fbg / Hb / Ht / Lym / MCH / MCHC / MCV / Mono / Neu / PT / Plat / RBC / WBC: tissue Blood; for KIDNEY_L / KIDNEY_R / KIDNEY_TOTAL: tissue Kidney; for LIVER: tissue Liver; for ALT / AST / BUN / CRE / Cl / DBIL / GLC / IP / LDH / Na / RALB / TBIL / TC / TG / TP / gamma-GTP: tissue Plasma
smiles,measurement,setting,value
CC/C(=C(\c1ccccc1)c1ccc(OCCN(C)C)cc1)c1ccccc1 [TAMOXIFEN],TERMINAL_BW,3 h,193.1 g
same,APTT,3 h,16.1 s
same,Bas,3 h,0%
same,Eos,3 h,1%
same,Fbg,3 h,259.8 mg/dL
same,Hb,3 h,13.1 g/dL
same,Ht,3 h,39.5%
same,Lym,3 h,77.6%
same,MCH,3 h,21.8 pg
same,MCHC,3 h,33.3%
same,MCV,3 h,65.7 fL
same,Mono,3 h,3.8%
same,Neu,3 h,17.4%
same,PT,3 h,11.9 s
same,Plat,3 h,112.1 x10_4/uL
same,RBC,3 h,601.4 x10_4/ul
same,WBC,3 h,80.5 x10_2/uL
same,KIDNEY_L,3 h,0.9 g
same,KIDNEY_R,3 h,0.9 g
same,KIDNEY_TOTAL,3 h,1.7 g
same,LIVER,3 h,8.3 g
same,ALT,3 h,50.8 IU/L
same,AST,3 h,82.6 IU/L
same,BUN,3 h,9.4 mg/dL
same,CRE,3 h,0.2 mg/dL
same,Cl,3 h,106.8 meq/L
same,DBIL,3 h,0.026 mg/dL
same,GLC,3 h,169.2 mg/dL
same,IP,3 h,9.5 mg/dL
same,LDH,3 h,77 IU/L
same,Na,3 h,140.8 meq/L
same,RALB,3 h,2.6 g/dL
same,TBIL,3 h,0.05 mg/dL
same,TC,3 h,80 mg/dL
same,TG,3 h,106.2 mg/dL
same,TP,3 h,5.6 g/dL
same,gamma-GTP,3 h,1 IU/L
same,TERMINAL_BW,6 h,193.6 g
same,Bas,6 h,0%
same,Eos,6 h,0.8%
same,Fbg,6 h,252.6 mg/dL
same,Hb,6 h,12.8 g/dL
same,Lym,6 h,78.8%
same,MCH,6 h,21.5 pg
same,MCHC,6 h,33.4%
same,MCV,6 h,64.3 fL
same,Mono,6 h,2.6%
same,Neu,6 h,17.6%
same,PT,6 h,12.2 s
same,Plat,6 h,112.7 x10_4/uL
same,RBC,6 h,595.6 x10_4/ul
same,WBC,6 h,59.9 x10_2/uL
same,KIDNEY_L,6 h,0.8 g
same,KIDNEY_R,6 h,0.9 g
same,KIDNEY_TOTAL,6 h,1.7 g
same,LIVER,6 h,7.5 g
same,ALT,6 h,38.8 IU/L
same,AST,6 h,74.2 IU/L
same,BUN,6 h,7.6 mg/dL
same,CRE,6 h,0.2 mg/dL
same,Cl,6 h,109.4 meq/L
same,DBIL,6 h,0.012 mg/dL
same,GLC,6 h,175 mg/dL
same,IP,6 h,10.4 mg/dL
same,LDH,6 h,54.4 IU/L
same,Na,6 h,141.8 meq/L
same,RALB,6 h,2.5 g/dL
same,TBIL,6 h,0.042 mg/dL
same,TC,6 h,76.4 mg/dL
same,TG,6 h,56.2 mg/dL
same,TP,6 h,5.2 g/dL
same,gamma-GTP,6 h,1.2 IU/L
same,TERMINAL_BW,9 h,193.9 g
same,APTT,9 h,14.5 s
same,Bas,9 h,0%
same,Eos,9 h,0.8%
same,Fbg,9 h,274.6 mg/dL
same,Hb,9 h,13 g/dL
same,Ht,9 h,38.6%
same,Lym,9 h,79%
same,MCH,9 h,22.2 pg
same,MCHC,9 h,33.7%
same,MCV,9 h,65.8 fL
same,Mono,9 h,2.4%
same,Neu,9 h,17.4%
same,PT,9 h,12.1 s
same,Plat,9 h,121.3 x10_4/uL
same,RBC,9 h,586.6 x10_4/ul
same,WBC,9 h,71.5 x10_2/uL
same,KIDNEY_L,9 h,0.8 g
same,KIDNEY_R,9 h,0.8 g
same,KIDNEY_TOTAL,9 h,1.7 g
same,LIVER,9 h,7.3 g
same,ALT,9 h,43.8 IU/L
same,AST,9 h,75.2 IU/L
same,BUN,9 h,8.4 mg/dL
same,CRE,9 h,0.2 mg/dL
same,Cl,9 h,107 meq/L
same,DBIL,9 h,0.01 mg/dL
same,GLC,9 h,184.6 mg/dL
same,IP,9 h,11.2 mg/dL
same,LDH,9 h,59.8 IU/L
same,Na,9 h,141.6 meq/L
same,RALB,9 h,2.5 g/dL
same,TBIL,9 h,0.044 mg/dL
same,TC,9 h,79.4 mg/dL
same,TG,9 h,39 mg/dL
same,TP,9 h,5.3 g/dL
same,gamma-GTP,9 h,1.4 IU/L
same,TERMINAL_BW,24 h,193.1 g
same,APTT,24 h,15.8 s
same,Bas,24 h,0.2%
same,Eos,24 h,1.2%
same,Fbg,24 h,260.2 mg/dL
same,Hb,24 h,13.2 g/dL
same,Ht,24 h,39.4%
same,Lym,24 h,80.8%
same,MCH,24 h,21.5 pg
same,MCHC,24 h,33.4%
same,MCV,24 h,64.5 fL
same,Mono,24 h,3.2%
same,Neu,24 h,14.2%
same,PT,24 h,12.9 s
same,Plat,24 h,113.6 x10_4/uL
same,RBC,24 h,611.2 x10_4/ul
same,WBC,24 h,91.3 x10_2/uL
same,KIDNEY_L,24 h,0.9 g
same,KIDNEY_R,24 h,0.9 g
same,KIDNEY_TOTAL,24 h,1.7 g
same,LIVER,24 h,8.4 g
same,ALT,24 h,45 IU/L
same,AST,24 h,71.6 IU/L
same,BUN,24 h,12.8 mg/dL
same,CRE,24 h,0.2 mg/dL
same,Cl,24 h,109.4 meq/L
same,DBIL,24 h,0.018 mg/dL
same,GLC,24 h,185.8 mg/dL
same,IP,24 h,8.3 mg/dL
same,LDH,24 h,54 IU/L
same,Na,24 h,143.2 meq/L
same,RALB,24 h,2.6 g/dL
same,TBIL,24 h,0.044 mg/dL
same,TC,24 h,51.4 mg/dL
same,TG,24 h,81 mg/dL
same,TP,24 h,5.4 g/dL
same,gamma-GTP,24 h,1 IU/L

# Reference: ChEMBL document CHEMBL3885861, “Open TG-GATES”
